The source of these data is paper PMC6934184, “Selective DNA-PKcs inhibition extends the therapeutic index of localized radiotherapy and chemotherapy” (The Journal of Clinical Investigation, 2019).

In the experiment the target is T1, TXK (Homo sapiens, UniProt P42681).
T1 construct: purchased Thermo Fisher Scientific (Life Technologies) SelectScreen
In words: SelectScreen Z'LYTE. It is filed as biochemical. The method in brief:
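Compound tested in SelectScreen activity assays, Z'LYTE for CSF1R, CDK1/cyclin B and MAP2K6 and Adapta for CAMK1. ATP for CAMK1 was listed as 10, and Km app was used for CSF1R. Results are expressed in percent.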

T1 sequence (P42681 whole entry): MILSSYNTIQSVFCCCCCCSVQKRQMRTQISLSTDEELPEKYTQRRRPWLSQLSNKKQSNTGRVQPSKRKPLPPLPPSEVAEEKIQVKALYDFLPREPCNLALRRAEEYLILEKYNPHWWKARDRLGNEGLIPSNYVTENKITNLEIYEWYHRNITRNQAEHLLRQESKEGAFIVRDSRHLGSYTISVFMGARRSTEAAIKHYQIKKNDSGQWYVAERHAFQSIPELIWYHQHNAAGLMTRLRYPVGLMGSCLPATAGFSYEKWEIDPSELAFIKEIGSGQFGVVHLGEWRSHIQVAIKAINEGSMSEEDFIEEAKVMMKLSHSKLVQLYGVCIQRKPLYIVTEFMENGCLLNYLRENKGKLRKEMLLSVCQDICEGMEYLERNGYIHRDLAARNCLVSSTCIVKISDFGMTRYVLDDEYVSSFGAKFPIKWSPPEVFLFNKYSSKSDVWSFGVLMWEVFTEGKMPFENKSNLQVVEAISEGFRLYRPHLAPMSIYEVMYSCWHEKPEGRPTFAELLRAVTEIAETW

In the case of `CN(C(=O)CN1CCOCC1)c1ccc2sc3c(-c4cccc5c(=O)cc(N6CC7CCC(C6)O7)oc45)cccc3c2c1` [NU5455], the inhibition (in general, the change of the read-out against control, counted positive when it falls) at 1 µM is -2.9%.
